In patent US10724044B2, “Reversible genic male sterility in compositae” (priority 2013, dated 2020):
Entries after “also recorded” stand apart in the source; their conditions may differ.

Columns and labels:
[1] = test system: homozygous mutant lettuce plant (Lactuca sativa), having a mutated version of the OPR3 gene; assay: Reversal of male sterility in homozygous OPR3 mutant lettuce by spraying young flower buds; format: in vivo; details: for restoration of male fertility in the F2 generation: F2 of cross of NCIMB 42060 plants with wild type lettuce, treatment as in Example 1; for seed production through selfing: 200 μM spray on inflorescences from early bolting stage, versus mock-treated controls (FIG. 1)
From the text: A mutant lettuce plant (Lactuca sativa), having a mutated version of the OPR3 gene, was obtained by means of chemical mutagenesis and subsequent TILLING screening of about 3,000 M2 plants.
Phenotypically this mutant lettuce plant was indistinguishable from wild type lettuce plants, when the mutation was present in a heterozygous state. […] The few pollen grains that developed in such homozygous mutants were not functional.
From the early bolting stage the inflorescences were sprayed 5 times per week, for a total of 3 weeks.

[2] = test system: homozygous mutant endive plant (Cichorium endivia), having a mutated version of the OPR3 gene; assay: Reversal of male sterility in homozygous OPR3 mutant endive by treating young flower buds; format: in vivo; details: for restoration of male fertility in the F2 generation: F2 of cross of endive plants of the invention with wild type endive, treatment as in Example 3; for flower colour of flowers developed from treated buds: homozygous mutants (pale flowers untreated), about 3.5 months; for flower colour of flowers developed from treated buds / male fertility (functional pollen, seed set through self-pollination): 200 μM (0.2 mM) with 0.025% Zipper surfactant sprayed daily on young flower buds; for male fertility (functional pollen, seed set through self-pollination): homozygous mutants, controls remained male sterile
From the text: A mutant endive plant (Cichorium endivia), having a mutated version of the OPR3 gene, was obtained by means of chemical mutagenesis and subsequent TILLING screening of about 10,000 M2 plants.
Phenotypically this mutant endive plant was indistinguishable from wild type endive plants, when the mutation was present in a heterozygous state. […] The pollen grains that developed in such homozygous mutants were unable to germinate and therefore dysfunctional.
Blue was the wild type flower colour in this endive background.

[3] = test system: Arabidopsis thaliana with mutations in the OPR3 gene; details: Arabidopsis OPR3 mutants, flower buds treated; cited from earlier work

| SMILES | restoration of male fertility in the F2 generation [1] | restoration of male fertility ([1]; homozygous mutants, 200 μM (0.2 mM) aqueous solution plus 0.025% Zipper surfactant sprayed on young flower buds, 5 times per week for 3 weeks) | seed production through selfing ([1]; homozygous mutants) | seed production through selfing ([1]; homozygous mutants, listed as MeJA) | restoration of male fertility in the F2 generation [2] | flower colour of flowers developed from treated buds [2] | flower colour of flowers developed from treated buds ([2]; listed as MeJA) | male fertility (functional pollen, seed set through self-pollination) [2] | male fertility (functional pollen, seed set through self-pollination) ([2]; listed as MeJA) | effect of other application methods than spraying ([2]; solution painted onto the surface of young flower buds with a fine brush) | restoration of male fertility [3] |
| --- | --- | --- | --- | --- | --- | --- | --- | --- | --- | --- | --- |
| CC/C=C\CC1C(=O)CCC1CC(=O)OC (centres unmarked) [methyl jasmonate] | sufficient to restore male fertility | sufficient to restore male fertility | has produced seeds through selfing | produced seeds in a subset of their flowers | sufficient to restore male fertility | Its colour has changed to blue | developed into blue flowers | it has become male-fertile | produced viable, functional pollen and were able to set seed through self-pollination; also recorded: could be overcome | comparable effects | could be restored |
| CC/C=C\C[C@H]1C(=O)CC[C@@H]1CC(=O)O [jasmonic acid, (3R,7S)-jasmonic acid] | sufficient to restore male fertility | – | – | – | sufficient to restore male fertility | – | – | had the same effect | – | – | – |
